Data on one compound can be found in publication PMC9436767, “Optical control of the β2-adrenergic receptor with opto-prop-2: A cis-active azobenzene analog of propranolol” (iScience, 2022).

By Ki is commonly meant the equilibrium dissociation constant of an inhibitor or competing ligand from its target. Low values mean a stronger hold on the target, high ones a looser hold on the target.

For one data set, the target named is β2-AR (Homo sapiens, UniProt P07550). Description: [3H]DHA radioligand displacement on membranes of HEK293T cells expressing β2-AR. The following applies: for Ki: β2-AR. Background: Displacement assays read how much labelled ligand stays bound in the presence of the test substance.
Chain of β2-AR (P07550 whole entry): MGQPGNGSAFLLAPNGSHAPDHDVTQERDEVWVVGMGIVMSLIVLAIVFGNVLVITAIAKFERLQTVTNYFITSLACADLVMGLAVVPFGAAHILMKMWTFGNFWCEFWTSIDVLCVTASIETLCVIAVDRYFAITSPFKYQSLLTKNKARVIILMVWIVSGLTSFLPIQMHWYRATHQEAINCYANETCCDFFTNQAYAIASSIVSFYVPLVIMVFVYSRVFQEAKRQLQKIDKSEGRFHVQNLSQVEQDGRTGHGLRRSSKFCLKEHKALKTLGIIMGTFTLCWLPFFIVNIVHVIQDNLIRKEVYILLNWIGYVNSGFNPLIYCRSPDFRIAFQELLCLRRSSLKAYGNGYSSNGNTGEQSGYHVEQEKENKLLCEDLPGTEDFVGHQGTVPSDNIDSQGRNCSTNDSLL
A short description of data set [1]: UV-Vis absorbance spectra. As to conditions: 25 μM in HBSS buffer with 1% DMSO. The class given is physicochemical. On the procedure: Solubility in buffer was explored for all compounds using nephelometry ([Bevan and Lloyd, 2000]) and these studies indicate good solubility of all azobenzene photoswiches up to at least 100 μM (Figure S1). […] For all compounds, 360 nm induces a large change in absorbance spectrum compared with the non-illuminated (dark) compounds (Table 1, Figure 2A, and S1), indicating photoisomerization to the cis-isomer. The absorbance peak (λmax) of Opto-prop-1-3 ranged between 319 and 347 nm for the trans-isomers and between 423 and 429 for the cis-isomers (Table 1), as is typical for azobenzene compounds ([Hauwert et al., 2018]). […] The photochemical conversions were determined by continuous illumination of the Opto-prop compounds with near UV-light (360 ± 20 nm) as 10-mM solutions in DMSO. Based on LCMS analysis, it was observed that all compounds obtained a high level of conversion to the cis-isomer with a photostationary state (PSS) of >88 area % cis-isomer (i.e. PSScis; Table 1). Subsequent back-switching to PSStrans with 434 nm maintained 22–29 area % cis-isomer (Table 1). The thermal relaxation of the PSScis state of the photoswitchable ligands was monitored over time by measuring absorbance at 254 nm. Only minor thermal relaxation to the trans-isomer could be detected at 20°C (not shown). An estimate of the relaxation rate at 20 °C was determined using a method by Priimagi et al. ([Ahmed et al., 2017]), which was performed in Hanks’ balanced salt solution (HBSS) using increased temperatures to enhance the speed of thermal relaxation. The Opto-prop ligands are all very stable as cis-isomer after illumination, with thermal relaxation half-lives of >10 days at 20 °C (See Table 1 and Figure S1).
UV-Vis spectra were obtained using a Thermo-scientific Evolution 201 PC spectrophotometer. Illumination was executed using a Sutter instruments Lambda LS with a 300 Watt full-spectrum lamp connected to a Sutter instruments Lambda 10-3 optical filter changer equipped with 360 ± 20 nm, 400 ± 5 nm, 434 ± 9 nm and 460 ± 5 nm filters. The light intensity is 0.93 mW/mm^2 using the 360 ± 20 nm filter, 0.22 mW/mm^2 using the 400 ± 5 nm filter, 0.79 mW/mm^2 for the 434 ± 9 nm filter and 0.26 mW/mm^2 for the 460 ± 5 nm filter as measured using a Thorlabs PM16-401 power meter.
For the determination of the UV-Vis spectra shown in Figure 2A, compounds (25 μM in 1% DMSO/HBSS buffer) were illuminated in Hellma Suprasil quartz 114-QS cuvettes with either a 360, 400, 434 or 460 nm filter for the indicated time. For the determination of PSScis and PSStrans states by UV spectroscopy (Figures S1D–S1F), a solution of the compound in 1% DMSO/HBSS buffer (25 μM) in a vial was illuminated to PSS cis with 360 nm (typically 4–5 min) and subsequently to PSS trans with 434 nm (typically 2–5 min). UV spectra were recorded.

The structures appear in SMILES notation.

Method for β2-AR: Membranes of HEK293T-cells transiently expressing the receptor of interest were co-incubated with the tritiated β1/β2-AR antagonist dihydroalprenolol ([^3H]DHA, Figure S2 depicts saturation binding experiments), together with increasing concentrations of the competing unlabeled ligand.
Two million HEK293T cells were seeded in a 10cm^2 dish and were transiently transfected the next day with 1 μg human β1-AR or the β2-AR plasmid DNA, 4 μg empty pcDEF3 plasmid DNA and 30 μg linear 25 kDa polyethyleneimine (PEI; Polysciences Warrington, USA) in a 150 mM NaCl solution. […] Two days after transfection, cells were resuspended and washed (3 times) with PBS and pelleted by centrifugation steps at 1500 g. After the final centrifugation step, cell pellets were reconstituted into ice-cold Tris-HCl buffer (15 mM, supplemented with 0.3 mM EDTA and 2 mM MgCl2 at pH7.4) and dounce-homogenised by plunging the pestle 10 times with 1,500 rpm (Tamson, the Netherlands). The homogenates were frozen and thawed twice using liquid nitrogen, after which the membranes were isolated using an ultra-centrifuge L70 at 40,000 g (Beckman Coulter, USA). Cell pellets were then washed and reconstituted in ice-cold 20 mM Tris-HCl buffer supplemented with 250 mM Sucrose at pH 7.4. Finally, the membrane samples where homogenized using a 23-gauge needle, snap-frozen with liquid nitrogen and stored until further experimentation at −80 °C. The protein content was determined using a BCA protein assay kit (Thermo Scientific, USA).
On the day of the experiment 0.25–0.5 μg membranes expressing either the β1-AR or the β2-AR, were co-incubated with [^3H]DHA (Perkin Elmer, USA) and increasing concentrations unlabeled ligand in HBSS buffer (Thermo Scientific, with Ca^2+ and Mg^2+) supplemented with 0.1% BSA for 1 h at 25 °C under gentile agitation. Either a 4 nM or 1 nM concentration of [^3H]DHA was used in combination with membranes expressing either the β1-AR or β2-AR, respectively. Binding reactions were terminated by filtration over a PEI coated GF/C filter (Perkin Elmer) using ice-cold 50 mM Tris-HCl buffer with 500 mM NaCl at pH 7.4. GF/C plates were dried at 52 °C and filter bound [^3H]DHA was quantified by adding 25 μL/well Microscint-O scintillation liquid and counting luminescence using the Wallac Microbeta counter, as described before.
IC50 values were determined by fitting the concentration-dependent displacement of [^3H]DHA by unlabeled ligands, with a three-parameter sigmoidal model in GraphPad Prism. […] Competition binding graphs represent the pooled data of ≥3 experiments, normalized to the fitted top and bottom of the reference sigmoidal displacement curve of unlabeled DHA.

Regarding `CC(C)NCC(O)COc1cccc(N=Nc2ccccc2)c1` (stereo not drawn) [Opto-prop-2], the “difference in binding affinity β2-AR vs β1-AR” value at β2-AR (cis-isomer) is listed as 1.9 log unit. In addition, at β2-AR (cis-isomer (PSScis)), the “selectivity in binding β2-AR over β1-AR” value was 78 fold. In addition, at β2-AR (fold difference between Ki of trans and Ki at PSScis), the “fold Ki trans vs PSScis at β2-AR” value was 587 fold. In addition, the “Active state at β2-AR” value on β2-AR (isomer state with higher affinity) was “cis”. Further, the inhibition constant (Ki) on β2-AR (pKi PSScis, illuminated to PSScis (360 nm) before experiment) is 2.51 nM; on β2-AR (pKi at PSStrans, at PSStrans (434 nm back-switching)), 31.6 nM; on β2-AR (pKi trans, without prior illumination (trans-isomer)), 1580 nM. The compound further returned a λmax cis in data set [1] (cis-isomer) of 424 nm. The λmax trans in data set [1] (trans-isomer) is listed as 319 nm.
